Patent US20240197876A1, “METHODS TO DETERMINE TREATMENT EFFICACY WITH GAMMA-DELTA T CELLS” (THE TRUSTEES OF THE UNIVERSITY OF PENNSYLVANIA, priority 2021, published 2024)
“Also recorded” adds a separate entry of the source.

Key:
Vδ2 T cells = assay: Vδ2 T cell expansion from cultured PBMCs (γδTCR activator with or without TLR agonist), FACS; type: cell-based, human; settings: for co-stimulatory effect on IPP induced Vδ2 T cell expansion: IPP 5 μg/ml plus TLR agonist, day 5 or 7
Procedure: Primary cells and cell lines: PBMCs and monocytes were obtained from Human Immunology Core at the University of Pennsylvania, which were obtained from healthy donors-Using informed consent and approved by Institutional Review Board. For γδ T cell expansion, PBMCs were cultured with RPMI1640 media supplemented with 10% FBS (HyClone, GE Healthcare, UT, USA), 100 U/ml Penicillin-Streptomycin, 2 mM L-Glutamine, 1/1000 2-Mercaptoethanol (2-Me) (Gibco, ThermoFisher Scientific, MA, USA) (or without 2-Me as indicated) and 200 units/ml of Recombinant Human IL-2 (PeproTech, NJ, USA) in 24-well microplates, new media added and supplemented every other day. TCR-γδ T cells were expanded in 24-well tissue culture treated microplates that were coated with mouse-monoclonal Anti-Pan-TCR γδ antibody (1.0 ug/ml in PBS; IMMU510, IM1349, Beckman). For naive γδT cell isolation, PBMCs were purified using a commercial Human TCR γ/δ T Cell Isolation Kit (Miltenyi Biotec, Germany). […] Human melanoma cell lines A375, A2058, WM9, 903 were obtained from Meenhard Herlyn's laboratory (The Wistar Institute, Philadelphia, PA, USA) and they were routinely tested for mycoplasma and DNA fingerprinted (Liu, et al., 2018, Nat Commun 9: 5426). Lung cancer cell line H1975, Colon cancer cell line HT-29, Gastric cancer cell line NCI-N87 were purchased from ATCC. Daudi cells were obtained from Andrei Thomas-Tikhonenko Lab at the University of Pennsylvania and Children's Hospital of Philadelphia, K562 cells were obtained from Michael Milone Lab at the University of Pennsylvania. BRAFi and MEKi combination therapy resistant (CR) cell lines WM9-CR and A2058-CR were generated as described before (Lu, et al., 2017, Nature 550: 133-136).
Flow cytometry: PBMCs and γδ T cell phenotypes were analyzed by flow cytometry. Briefly, single-cell suspensions were surface-stained for 30 min at 4° C. in dark, and […] staining was performed for 60 min after fixation and permeabilization using a True-Nuclear™ Transcription Factor Buffer Set (BioLegend, CA, USA). CFSE Cell Proliferation Kit for flow cytometry was purchased from Invitrogen (ThermoFisher Scientific, MA, USA). Fluorescein-conjugated antibodies were used. Data were acquired on LSRA/B or Fortessa B flow cytometers (BD Biosciences, NJ, USA) at Flow Cytometry and Cell Sorting Resource Laboratory at the University of Pennsylvania and analyzed with FlowJo software (Tree Star, Ashland, OR).

γδ T cells = assay: Expansion of γδ T cells ex vivo from PBMC with ZOL or anti-γδTCR Ab plus IL-2; type: cell-based, human
Procedure: Expansion of γδ T cells ex vivo. PBMC were plated at 2×10^6 cells per well in 24-well flat-bottomed plates at 37° C. in a humidified atmosphere of 5% CO2. The standard culture medium contains RPMI 1640 (Gibco), containing 10% FBS (Gibco), 2 mM L-glutamine (Gibco), 100 U/ml penicillin (Gibco), streptomycin (Gibco) and 200 IU/ml IL-2 (PeproTech, Rocky Hill, NJ) (Castella et al., Nature communications. 2017; 8:15663.) 5 μM zoledronic acid (Sigma-Aldrich, St. Louis, MO USA) was added into the culture medium at the first day and the medium containing IL-2 changed every two days. In some cases, 24-well plates were pre-coated with 0.5 μg/ml anti-γδTCR Ab (Immunotech, Beckman Coulter, Fullerton, CA) and then PBMCs were added to the anti-γδTCR Ab-coated wells and cultured in the standard culture medium mentioned above. The viability and cell number of γδ T cells were evaluated by the trypan blue staining assay, and the percentage of γδ T cells counted by flow cytometry (Ryan et al., Proc NatlAcadSci USA. 2016; 113(50):14378-83).
Antibodies and flow cytometry analyses. […] Samples were acquired using a LSR-A flow cytometer (BD Biosciences, Baltimore, MD) and analyzed using FlowJo software (Tree Star Inc., Ashland, OR).

[1] = tested on: UACC903 and A2058 melanoma cells; assay: Cytotoxicity and 3-D tumor spheroid assays with γδ T cells expanded by ZOL or anti-γδTCR antibody; type: cell-based, human
Procedure: Cytotoxicity assays. The CytoTox 96® Non-Radioactive Cytotoxicity Assay (Promega, Madison, WI) was applied to measure the cytotoxicity of expanded Vγ9Vδ2 T cells. In this respect, A375 (2×10^4 cells/well), A2058 (2×10^4 cells/well), and 903 (2×10^4 cells/well) melanoma cells were used as target cells and seeded into a 96-round well plate, and expanded Vγ9Vδ2 T cells (1×10^5 cells/well) served as effector cells were directly added to individual wells incubated overnight. The supernatants were collected and the lactate dehydrogenase activity was detected. Controls for spontaneous lactate dehydrogenase release from effector and target cells, the target maximum release, as well as the culture medium background were measured simultaneously (Zhou et al., Cell Mol Immunol. 2012; 9(1):34-44).
3-D Spheroid Assays. The 96-well plate was pre-coated with 50 μL 1.5% Agarose (LONZA, Rockland, ME). Melanoma cells (A2058 and UACC 903 cells) were labeled with CellTracker™ Orange CMRA Dye (Thermo Fisher Scientific, Waltham, MA) and seeded at 2×10^4 cells/well and allowed to form spheroids over 48 hours. […] Infiltrated spheroids were analyzed at 48 h using confocal microscope (Leica, Wetzlar, Germany). Spheroids were divided into single cells and CFSE+ cells infiltrating the spheroids was counted by flow cytometry.

purified γδ T cells = assay: CFSE proliferation of purified naive γδ T cells; type: cell-based, human; settings: ZOL+PBMCs group, same-donor PBMCs not labeled
Procedure: Primary cells and cell lines: PBMCs and monocytes were obtained from Human Immunology Core at the University of Pennsylvania, which were obtained from healthy donors-Using informed consent and approved by Institutional Review Board. For γδ T cell expansion, PBMCs were cultured with RPMI1640 media supplemented with 10% FBS (HyClone, GE Healthcare, UT, USA), 100 U/ml Penicillin-Streptomycin, 2 mM L-Glutamine, 1/1000 2-Mercaptoethanol (2-Me) (Gibco, ThermoFisher Scientific, MA, USA) (or without 2-Me as indicated) and 200 units/ml of Recombinant Human IL-2 (PeproTech, NJ, USA) in 24-well microplates, new media added and supplemented every other day. TCR-γδ T cells were expanded in 24-well tissue culture treated microplates that were coated with mouse-monoclonal Anti-Pan-TCR γδ antibody (1.0 ug/ml in PBS; IMMU510, IM1349, Beckman). For naive γδT cell isolation, PBMCs were purified using a commercial Human TCR γ/δ T Cell Isolation Kit (Miltenyi Biotec, Germany). Purified naive γδ T cells routinely exceeded >95% […] by flow cytometry. […]
Flow cytometry: PBMCs and γδ T cell phenotypes were analyzed by flow cytometry. […] Data were acquired on LSRA/B or Fortessa B flow cytometers (BD Biosciences, NJ, USA) at Flow Cytometry and Cell Sorting Resource Laboratory at the University of Pennsylvania and analyzed with FlowJo software (Tree Star, Ashland, OR).

Vδ2 T cells in Hu-Mice = assay: Vδ2 T cell expansion from PBMCs of humanized mice; type: cell-based; settings: PBMCs from four Hu-Mice, 10 days
Source text: Humanized Mice (Hu-Mice): Humanized mice were generated at the Wistar Institute as described (Somasundaram, et al., 2021, Nat Commun 12: 346). Briefly, the humanized mouse model is developed by reconstituting immunodeficient NSG mice with fetal liver-derived CD34+ human hematopoietic stem cells, grafted intravenously, and autologous fetal thymus chunks, grafted under the renal capsule, to promote rapid human T-cell differentiation.
NSG mice engrafted with human hematopoietic stem (CD34+) cells or peripheral blood leukocytes (Hu-Mice) are a useful tool to study immunotherapy (Somasundaram, et al., 2021, Nat Commun 12: 346). However, it was previously unclear whether these mice have functional human γδ T cells. As shown herein, CD3^+VS2^+ T cells are present in the PBMCs of Hu-Mice (FIG. 32A). PBMCs from four Hu-Mice were cultured using human PBMCs culture media and were stimulated with IPP plus resiquimod, or ZOL, for 10 days.

melanoma cells = assay: LDH release cytotoxicity of expanded γδ T cells to melanoma cell lines; type: cell-based, human; settings: E:T 5:1
Procedure: Cytotoxicity: Cytotoxicity of γδ T cells against melanoma cells was measured by lactate dehydrogenase (LDH) release using the CytoTox 96® Non-Radioactive Cytotoxicity Assay kit (G1780, Promega, WI, USA) as described (Zhu, et al., 2016, Molecular Medicine 22: 737-746). Briefly, Melanoma cells were seeded at 4×10^4 cells/well in 50 μl standard growth medium in 96-well plates, while γδ T cells were seeded at effective target ratio E:T=5:1 in the same volume of PBMC culture media at the same time. After the indicated time, plates were spin down briefly and 50 μl supernatants were then harvested for further analysis. Absorbance at 490 nm was read using a BioTek Synergy HT reader (BioTek Instruments, VT, USA) after LDH activity detection, the percentage of cytotoxicity was calculated as (Experimental-Effector Spontaneous-Target Spontaneous)/(Target Maximum-Target Spontaneous)×100.

[2] = tested on: gastric, colon and lung cancer cells; assay: LDH release cytotoxicity of expanded γδ T cells to epithelial cancer cell lines; type: cell-based, human; settings: E:T 5:1; resiquimod 10 μg/ml

Procedure for monocytes: FIG. 30C provides data for purified monocytes cultured with resiquimod for 24 h with indicated concentration, and the viability and mortality were detected with Annexin V/7-AAD apoptosis kit and flow cytometry.

With `OCCS` [2-mercaptoethanol] the “effect of antioxidant in the culture medium on Vδ2 T cell expansion” value (Vδ2 T cells; IPP plus resiquimod, 8 days, medium with or without 2-Me) was “did not affect Vδ2 T cell expansion”.
With `NC(=O)[C@H]1CCS[C@@H]2C[C@]3(CCCN3C(=O)Cc3ccc(NC(=O)COc4ccc(Cl)cc4Cl)cc3)C(=O)N12` [ST2825] the “effect of MyD88 inhibition on resiquimod co-stimulation of Vδ2 T cell expansion” value (Vδ2 T cells; PBMCs with IPP or IPP plus resiquimod) was “eliminated the co-stimulatory function of resiquimod”.
In the case of `O=P(O)(O)C(O)(Cn1ccnc1)P(=O)(O)O` [ZOL, zoledronate], the “γδ T cell subsets expanded” value (γδ T cells; PBMCs expanded by ZOL or anti-TCRγδ Ab) was “preferentially expanded Vδ2 cells”, the “γδ T cell expansion, ZOL compared with anti-γδTCR antibody” value (γδ T cells; PBMCs of healthy donors, 10 day expansion with IL-2) was “significantly better than that of anti-γδT TCR antibody; also recorded: better expansion of γδ T cells than anti-γδTCR antibody” and the “cytotoxicity of tumor spheroid assays” value [1] was “comparable results”. For the same molecule, the “Vδ2 T cell (CFSE+) proliferation when PBMCs were added to the culture system” value (purified γδ T cells) was “regained the capability of inducing Vδ2 T cells (CFSE+) proliferation” and the “expansion of peripheral Vδ2 T cells in Hu-Mice” value (Vδ2 T cells in Hu-Mice) was “approximately a thousand-fold expansion”.
With `CCNCc1nc2c(N)nc3ccccc3c2n1CC(C)(C)O` [gardiquimod] the “co-stimulatory effect on IPP induced Vδ2 T cell expansion” value (Vδ2 T cells; PBMCs) was “promoted Vδ2 T cell expansion”.
`CC(C)Cn1cnc2c(N)nc3ccccc3c21` [imiquimod] was tested, and the “co-stimulatory effect on IPP induced Vδ2 T cell expansion” value (Vδ2 T cells; PBMCs) was “promoted Vδ2 T cell expansion”.
For `CCOCc1nc2c(N)nc3ccccc3c2n1CC(C)(C)O` [resiquimod], the “efficacy and cytotoxicity compared among three TLR7/8 agonists” value (Vδ2 T cells; co-stimulation with IPP, PBMCs, day 7) was “best efficacy with the least cytotoxicity”, the “cytotoxic effect of γδ T cells expanded using pan-anti-γδTCR antibody to melanoma cell lines” value (melanoma cells; A375, 12051u, 903, A2058, WM9, A2058CR, WM9CR, resiquimod 10 μg/ml) was “significantly enhanced the cytotoxic effect” and the “cytotoxic effect of γδ T cells expanded using IPP” value (melanoma cells; A375 and A2058, about 13 days expansion with or without resiquimod) was “significantly enhanced the cytotoxic effect”. The “cytotoxic effect of γδ T cells expanded using pan-anti-γδTCR antibody to epithelial cancer cells” value [2] was “significantly enhanced the cytotoxic effect” and the “apoptosis and cell death of monocytes” value (monocytes) was “induced apoptosis and cell death in some monocytes”.
For `CCC(=O)N1CCN(c2ccc(-n3c(=O)ccc4cnc5ccc(-c6cnc7ccccc7c6)cc5c43)cc2C(F)(F)F)CC1` [torin1], the “expansion of Vδ2 T cells induced by IPP in presence of mTOR inhibitor” value (Vδ2 T cells; PBMCs with IPP) was “significantly reduced” and the “inhibition of Vδ2 T cell expansion by IPP plus resiquimod, relative to IPP” value (Vδ2 T cells; PBMCs with IPP plus resiquimod and mTOR inhibitor) was “more prominent”.
